The source made the active and inactive calls. No cut-off for these calls is given here.
Legend:
Homo sapiens [1] = species on record: Homo sapiens; assay: Inhibition of human recombinant topoisomerase 1B expressed in Saccharomyces cerevisiae using plasmid DNA as substrate assessed as DNA relaxation at 100 uM preincubated with enzyme for 15 mins followed by substrate addition after 15 secs by agarose gel electrophoresis
Homo sapiens [2] = species on record: Homo sapiens; assay: Inhibition of human recombinant topoisomerase 1B expressed in Saccharomyces cerevisiae using plasmid DNA as substrate assessed as DNA relaxation at 100 uM preincubated with enzyme for 15 mins followed by substrate addition after 1 min by agarose gel electrophoresis
Homo sapiens [3] = species on record: Homo sapiens; assay: Inhibition of human recombinant topoisomerase 1B expressed in Saccharomyces cerevisiae using plasmid DNA as substrate assessed as DNA relaxation at 100 uM preincubated with enzyme for 15 mins followed by substrate addition after 3 min by agarose gel electrophoresis
[4] = Cytotoxicity against human BT20 cells assessed as growth inhibition after 48 hrs by CCK8 assay; assay type: functional, cell-based; conditions: BT-20, 48 h
A549 = assay: Cytotoxicity against human A549 cells assessed as growth inhibition after 48 hrs by CCK8 assay; assay type: functional, cell-based; conditions: A549, 48 h
[5] = Cytotoxicity against human SKOV3 cells assessed as growth inhibition after 48 hrs by CCK8 assay; assay type: functional, cell-based; conditions: SK-OV-3, 48 h
Homo sapiens [6] = species on record: Homo sapiens; assay: Inhibition of human recombinant topoisomerase 1B expressed in Saccharomyces cerevisiae using plasmid DNA as substrate assessed as DNA relaxation at 100 uM after 15 secs to 3 mins by agarose gel electrophoresis
Homo sapiens [7] = species on record: Homo sapiens; assay: Inhibition of human recombinant topoisomerase 1B expressed in Saccharomyces cerevisiae using plasmid DNA as substrate assessed as DNA relaxation at 50 uM preincubated with enzyme for 15 mins followed by substrate addition after 50 secs by agarose gel electrophoresis
Homo sapiens [8] = species on record: Homo sapiens; assay: Inhibition of human recombinant topoisomerase 1B expressed in Saccharomyces cerevisiae using plasmid DNA as substrate assessed as DNA relaxation at 100 uM preincubated with substrate for 15 mins followed by enzyme addition after 15 secs to 3 mins by agarose gel electrophoresis
[9] = Inhibition of human recombinant topoisomerase 1B expressed in Saccharomyces cerevisiae using plasmid DNA as substrate assessed as DNA relaxation at 25 uM preincubated with enzyme for 15 mins followed by substrate addition after 50 secs by agarose gel electrophoresis

| Structure (SMILES) | inhibition (Homo sapiens [1]) | inhibition (Homo sapiens [2]) | inhibition (Homo sapiens [3]) | IC50 [4] [µM] | IC50 (A549) [µM] | IC50 [5] [µM] | inhibition (Homo sapiens [6]) | inhibition (Homo sapiens [7]) | inhibition (Homo sapiens [8]) | inhibition [9] |
| --- | --- | --- | --- | --- | --- | --- | --- | --- | --- | --- |
| Fc1ccc(-c2nc3cccnc3c3c2Cc2ccccc2-3)c(F)c1 | Active | Active | Active | 39.6 | 1.7 | 6.4 | – | – | – | – |
| CC[C@@]1(O)C(=O)OCc2c1cc1n(c2=O)Cc2cc3ccccc3nc2-1 [CAMPTOTHECIN] | Active | Active | inactive | 0.07 | – | 0.0055 | Active | Active | – | – |
| Fc1ccc([C@H]2Nc3cccnc3[C@H]3c4ccccc4C[C@H]32)cc1F (relative stereo) | Active | Active | Active | > 100 | 27.3 | > 100 | – | – | Active | – |
| Fc1cccc([C@H]2Nc3cccnc3[C@H]3c4ccccc4C[C@H]32)c1 (relative stereo) | Active | Active | Active | 15.5 | 3.5 | > 100 | – | Active | Active | Active |
| Fc1cccc(-c2nc3cccnc3c3c2Cc2ccccc2-3)c1 | Active | Active | Active | > 100 | > 100 | > 100 | – | Active | – | Active |
| Fc1ccc(-c2nc3cccnc3c3c2Cc2ccccc2-3)cc1F | Active | Active | Active | > 100 | 48.6 | > 100 | – | – | – | – |
| O=C1c2ccccc2-c2c1c(-c1ccccc1)nc1cccnc21 | Active | Active | Active | 14.1 | 23.7 | 1.9 | – | Active | – | Active |
| O=C1c2ccccc2-c2c1c(-c1ccc(F)cc1F)nc1cccnc21 | Active | Active | Active | > 100 | 34.1 | > 100 | – | – | – | – |
| O=C1c2ccccc2-c2c1c(-c1cccc(F)c1)nc1cccnc21 | Active | Active | Active | > 100 | > 100 | > 100 | – | Active | – | Active |
| c1ccc2c(c1)Cc1c(-c3ccncc3)nc3cccnc3c1-2 | Active | Active | Active | 32.9 | 2.9 | 10.5 | – | – | – | – |
| c1ccc(-c2nc3cccnc3c3c2Cc2ccccc2-3)cc1 | Active | Active | Active | > 100 | > 100 | 47.9 | – | Active | – | Active |
| OC1c2ccccc2-c2c1c(-c1ccccc1)nc1cccnc21 (stereo unspecified) | Active | Active | Active | > 100 | > 100 | > 100 | – | – | – | – |
| c1ccc2c(c1)C[C@@H]1[C@H]2c2ncccc2N[C@@H]1c1ccncc1 (relative stereo) | Active | Active | Active | 24.4 | 10.6 | 55.4 | – | – | Active | – |
| c1ccc([C@H]2Nc3cccnc3[C@H]3c4ccccc4C[C@H]32)cc1 (relative stereo) | Active | Active | Active | > 100 | 5.3 | > 100 | – | – | – | – |
| O=C1c2ccccc2-c2c1c(-c1ccc(C(F)(F)F)cc1)nc1cccnc21 | Active | Active | Active | > 100 | > 100 | > 100 | – | – | – | – |
| O=[N+]([O-])c1ccc([C@H]2Nc3cccnc3[C@H]3c4ccccc4C[C@H]32)cc1 (relative stereo) | Active | Active | Active | > 100 | 10.5 | > 100 | – | – | – | – |
| FC(F)(F)c1ccc([C@H]2Nc3cccnc3[C@H]3c4ccccc4C[C@H]32)cc1 (relative stereo) | Active | Active | Active | 63.9 | 4.2 | > 100 | – | Active | – | Active |
| OC1c2ccccc2-c2c1c(-c1ccc(C(F)(F)F)cc1)nc1cccnc21 (stereo unspecified) | Active | Active | Active | > 100 | > 100 | > 100 | – | Active | – | Active |
| FC(F)(F)c1ccc(-c2nc3cccnc3c3c2Cc2ccccc2-3)cc1 | Active | Active | Active | > 100 | > 100 | > 100 | – | – | – | – |
| Fc1ccc([C@H]2Nc3cccnc3[C@H]3c4ccccc4C[C@H]32)c(F)c1 (relative stereo) | Active | Active | Active | 86.4 | 6.4 | > 100 | – | – | Active | – |
| O=[N+]([O-])c1ccc(-c2nc3cccnc3c3c2Cc2ccccc2-3)cc1 | Active | Active | Active | 61.3 | 5.7 | 50.8 | – | – | – | – |
| O=C1c2ccccc2-c2c1c(-c1ccc(F)c(F)c1)nc1cccnc21 | Active | Active | Active | > 100 | 20.7 | > 100 | – | – | – | – |

Reference: ChEMBL document CHEMBL3784937, “Synthesis and biological evaluation of indeno[1,5]naphthyridines as topoisomerase I (TopI) inhibitors with antiproliferative activity” (Eur J Med Chem, 2016)
